# Source: patent US20230390277A1, “METHODS TO SENSITIZE TUMORS TO TREATMENT BY IMMUNOTHERAPY” (Ohio State Innovation Foundation, priority 2020, published 2023)
# Experiments:
# [1] = test system: pODD-Luc reporter in MP2 pODD cells; test: in vitro luciferase assay, MP2 pODD cells; format: cell-based, human; conditions: 16 hours, 1 mM
# Method: (§1) PCR-amplified cassette was then digested with Asci and Pmel restriction enzymes and ligated into pLenti-C-Myc-DDK-IRES-Puro. Correct orientation and sequence was confirmed by Sanger DNA sequencing. HeLa pODD and MIP2 pODD transfectants were selected with 2 μg/ml Puromycin for two weeks. Stable MP2 CMV Cells were generated by lentiviral transduction of MP2 cells with pLenti-CMV-Puro-Luc lentiviral vector (Addgene#17477) with 2 Puromycin selection for two weeks. Cells were grown in Dulbecco's Modified Eagle's Medium (DMEM) containing 25 mM D-glucose, 4 mM glutamine and 44 mM sodium bicarbonate in 5% CO2, if not stated otherwise. The cells were exposed to hypoxia (1% O2) in H35 Hypoxic Workstation (Hypoxygen) with 5% CO2 at 37° C. In some experiments, we used a hypoxia mimetic dimethyloxalyglycine (DMOG) as described. Cell counts and cellular proliferation were established using hemocytometer to determine the cell number and trypan blue exclusion assay to establish the fraction of viable/dead cells. All human cell lines have been authenticated using STR profiling within the past 3 years. All experiments were performed with mycoplasma-free cells.
# In vitro luciferase Assay. Proteins were extracted using Luciferase Assay Lysis Buffer (125 mM Tris-HCl, pH 7.5, 11.0 mM DTT, 10 mM EGTA, 50% Glycerol, 5% Triton X-100) and 200 μl/sample were transferred to 96-well plate and D-luciferin was added to the final concentration of 150 μg/ml immediately before the assay. Bioluminescence was measured on a Synergy H1 Hybrid Plate Reader (Biotek) after a 10-minute incubation period (10 slsample, Gain=150) in triplicates.
# MP2 CMV cells = test: in vitro luciferase assay, MP2 CMV control cells; format: cell-based, human; conditions: 1 mM DMOG, constitutive CMV reporter
# Method: as §1
# In vitro luciferase Assay. […] Bioluminescence was measured on a Synergy H1 Hybrid Plate Reader (Biotek) after a 10-minute incubation period (10 slsample, Gain=150) in triplicates.
# MP2 pODD flank tumors = test: in vivo bioluminescent imaging, heterotopic MP2 pODD flank tumors; set-up: species or system mouse
# Method: In vivo bioluminescent imaging. […] For heterotopic flank tumor experiments, 1×10^6 HeLa pODD or 5×10^6 MP2 cells were injected subcutaneously (s.c.) into the flanks of 6-wk-old female (HeLa pODD) or male (N1P2 pODD or MP2 CMV) immunocompromised athymic nu/nu mice. Replicate experiments with groups of 4-6 mice were used for statistical reproducibility. Caliper measurements of opposing diameters were used to calculate the tumor volumes using the modified ellipsoidal formula: tumor volume=(length×width^2)[23]. Upon reaching 100 mm^3, the animals were given 100 mg/kg D-luciferin intraperitoneally and bioluminescence images were captured using IVIS In Vivo Imaging System Lumina II (Perkin Elmer Inc). […] Bioluminescent data were analyzed using living Image software (Perkin Elmer Inc) and calculated as photon flux/sec. Obtained individual photon flux peak values were then normalized to baseline for each mouse and averaged per group. Gas inhalation experiments were performed by switching medical air and carbogen gas sources for the IVIS anesthesia vaporizer. Initial baselines were established in medical air under anesthesia, then the mice were subjected to 30 minutes of either medical air or carbogen rebreathing in an air-tight chamber while awake. After 30 minutes, photon flux was established in respective gas sources as a carrier for isoflurane anesthesia.
# PDE10A = biological target: T1, PDE10A (Homo sapiens, UniProt Q9Y233); test: PDE10A purified enzyme activity assay (BPS Bioscience); format: biochemical; conditions: dose response analysis
# T1 construct: purchased BPS Bioscience
# Source text: We therefore defined the structure activity relationship (SAR) of PPV relative to two assays: inhibition of cellular OCR by Seahorse XE assay, and inhibition of PDE10A by purified enzyme activity (PDE10A activity assay, BPS Bioscience). […] Because the top portion of PPV was a planar structure like that of rotenone, we decided to focus our attention on the lower portion of the molecule.
# MC38 colorectal tumor = test: MC38 colorectal tumors in C57Bl6 mice, sensitization to anti PD-1; format: in vivo, mouse
# Method: MC38 tumors grown in C57B16 mice were treated as indicated with irrelevant antibody, anti PD-1, or anti PD-1 after PPV or SMV32 n=5-7, P=<0.05* for PPV and <0.01** for SMV32.
# Papaverine and SMV32 enhance PD-1 checkpoint blockade immunotherapy for cancer treatment. Because of the literature describing the immunomodulatory effects of hypoxia^(24-27), we hypothesized that reducing hypoxia may also enhance tumor lymphocyte infiltration and function and improve immune-mediated tumor cell killing. As those of skill in the art recognize, there is a large body of literature and research on increase the supply side of the hypoxia equation, but it has been heretofore an unexpected approach to decrease the tri demand side of the hypoxia equation. We tested tumors grown from the relatively immune-sensitive syngeneic MC38 colorectal tumor line in immuno-competent C5713116 mice. […] In a second cohort, we implanted 1×10^6 cells/mouse and after 5 days, when tumors were 50-100 mm^3, they were randomized into four groups. Therapy was started with either control rat IgG antibody, or a suboptimal dose of anti PD-1(CD279) blocking monoclonal antibody (BioXCell, clone 29F.1A12, 100 μg ip every 3 days).
# CMT167 flank lung tumors = CMT167 flank lung tumors in C57Bl6 mice, sensitization to anti PD-1; format: in vivo, mouse; conditions: given 16 hours prior to sub-optimal anti-PD-1, days 10 and 13
# Method: C57B16 mice bearing CMT167 flank lung tumors were treated as indicated on days 10 and 13 and relative volume followed.
# There are reports in the literature indicating ways that hypoxia affects immune functions of lymphocytes, MDSCs and T regulatory cells infiltrating in the tumor.
# LLC tumor = test: Lewis Lung Carcinoma (LLC) PD-1 blockade resistant tumor model; format: in vivo, mouse; conditions: treated on days 5, 8
# Method: LLC tumor bearing mice were treated as indicated on days 5, 8 and relative growth followed. P=NS for PD-1 vs PPV->PD1, 0.04 for PD-i vs SMV32->PD-1.
# Finally, as a rigorous test of anti-hypoxia agents as immuno-sensitizers of model tumors grown in mice, we next tested the PD-1 blockade resistant tumor model Lewis Lung Carcinoma (LLC). These tumors have been reported to be refractory to even full dose (200 ug/mouse) PD-1 blocking antibody.
# [2] = test system: orthotopic MP2 pODD tumors; test: in vivo bioluminescent imaging, orthotopic MP2 pODD tumors; set-up: species or system mouse; conditions: tail vein injection
# Method: (§2) Orthotopic Panreatic Xenografts. MP2 PD AC cells (1×10^6) or the indicated derivates were implanted in immune-deficient athymic nu/nu mice following fACLIC approved protocols. Briefly, an incision was placed in the right flank of anesthetized animals the spleen and pancreas liberated. Cells were mixed 1:1 with Matfigel and implanted in the tail of the pancreas in 10 μl. Incision was sutured in 2 layers, animals given long lasting analgesics, and allowed to recover from anesthesia. Mice were returned to housing for post-op care and monitored daily for 4 days. Animals were checked weekly after that by palpation to determine tumor growth.
# (§3) In vivo bioluminescent imaging. All animal experiments were performed according to protocols approved by the OSU institutional IAGLIC review (protocol #201200000124-R2), with daily veterinarian observation. For heterotopic flank tumor experiments, 1×10^6 HeLa pODD or 5×10^6 MP2 cells were injected subcutaneously (s.c.) into the flanks of 6-wk-old female (HeLa pODD) or male (N1P2 pODD or MP2 CMV) immunocompromised athymic nu/nu mice. […] Mice were anesthetized with 1.5% isoflurane and bioluminescence was measured every two minutes for the period of 25 minutes to identify peak response of each mouse to D-luciferin. Bioluminescent data were analyzed using living Image software (Perkin Elmer Inc) and calculated as photon flux/sec. […]
# [3] = test system: orthotopic MP2 CMV tumors; test: in vivo bioluminescent imaging, orthotopic MP2 CMV tumors; set-up: species or system mouse; conditions: single dose of 2 mg/kg by tail vein, up to 6 hours post injection
# Method: as §2, §3
# HeLa pODD flank tumors = test: in vivo bioluminescent imaging, HeLa pODD flank tumors; set-up: species or system mouse; conditions: 4 mg/kg by tail vein
# Method: In vivo bioluminescent imaging. All animal experiments were performed according to protocols approved by the OSU institutional IAGLIC review (protocol #201200000124-R2), with daily veterinarian observation. For heterotopic flank tumor experiments, 1×10^6 HeLa pODD or 5×10^6 MP2 cells were injected subcutaneously (s.c.) into the flanks of 6-wk-old female (HeLa pODD) or male (N1P2 pODD or MP2 CMV) immunocompromised athymic nu/nu mice. Replicate experiments with groups of 4-6 mice were used for statistical reproducibility. Caliper measurements of opposing diameters were used to calculate the tumor volumes using the modified ellipsoidal formula: tumor volume=(length×width^2)[23]. Upon reaching 100 mm^3, the animals were given 100 mg/kg D-luciferin intraperitoneally and bioluminescence images were captured using IVIS In Vivo Imaging System Lumina II (Perkin Elmer Inc). Mice were anesthetized with 1.5% isoflurane and bioluminescence was measured every two minutes for the period of 25 minutes to identify peak response of each mouse to D-luciferin. Bioluminescent data were analyzed using living Image software (Perkin Elmer Inc) and calculated as photon flux/sec. Obtained individual photon flux peak values were then normalized to baseline for each mouse and averaged per group. […]
# [4] = test system: spontaneous canine soft tissue sarcoma; test: BOLD MRI of spontaneous canine soft tissue sarcoma; format: in vivo, dog; conditions: for fraction of tumors responding well (T2* increase): one hour
# Method: BOLD MRI analysis of canine tumors. Canine patients with primary sarcomas were enrolled in a trial to evaluate the effects of papaverine delivered at a dose of 1 or 2 mg/kg using ire blood oxygen level dependent (BOLD) magnetic resonance imaging (MRI). Dogs were anesthetized with isoflurane in medical air to effect on the bed of a Philips ingenia 3.071 UR scanner. They were first imaged with T1- (TR: 700ms, TE: 9ms, resolution 0.3×0.3×3 mm) and T2-weighted (TR: 3000 ms, TE: 80ms, resolution 0.4×0.4×3 mm) scans in transaxial, coronal, and sagittal orientations to acquire data covering the extent of the tumor. BOLD data were acquired as a series of 60 repeats of a volumetric echo-planar T2-weighted sequence (TR: 3000 ms, TE: 35 ms, resolution 1.6×1.6×4 mm) collected over a period of 3 minutes. In addition, a single slice fast field echo (FIFE) sequence (resolution 0.5×0.5×4 mm) was used to acquire 8 images at echo times from 5 to 75 ms, allowing fitting of pixel T2* values. After these acquisitions, papaverine was delivered intravenously and the BOLD and FEE data were acquired again one hour post-administration. All data were analyzed using the RT Image software package. BOLD data were registered using an affine transformation and percent signal change was calculated on a per-pixel basis: T2* values were fit on a pixel-by-pixel basis using a Levenberg-Marquardt least squares fit to a monoexponential decay function.
# T1 sequence (Q9Y233 whole entry): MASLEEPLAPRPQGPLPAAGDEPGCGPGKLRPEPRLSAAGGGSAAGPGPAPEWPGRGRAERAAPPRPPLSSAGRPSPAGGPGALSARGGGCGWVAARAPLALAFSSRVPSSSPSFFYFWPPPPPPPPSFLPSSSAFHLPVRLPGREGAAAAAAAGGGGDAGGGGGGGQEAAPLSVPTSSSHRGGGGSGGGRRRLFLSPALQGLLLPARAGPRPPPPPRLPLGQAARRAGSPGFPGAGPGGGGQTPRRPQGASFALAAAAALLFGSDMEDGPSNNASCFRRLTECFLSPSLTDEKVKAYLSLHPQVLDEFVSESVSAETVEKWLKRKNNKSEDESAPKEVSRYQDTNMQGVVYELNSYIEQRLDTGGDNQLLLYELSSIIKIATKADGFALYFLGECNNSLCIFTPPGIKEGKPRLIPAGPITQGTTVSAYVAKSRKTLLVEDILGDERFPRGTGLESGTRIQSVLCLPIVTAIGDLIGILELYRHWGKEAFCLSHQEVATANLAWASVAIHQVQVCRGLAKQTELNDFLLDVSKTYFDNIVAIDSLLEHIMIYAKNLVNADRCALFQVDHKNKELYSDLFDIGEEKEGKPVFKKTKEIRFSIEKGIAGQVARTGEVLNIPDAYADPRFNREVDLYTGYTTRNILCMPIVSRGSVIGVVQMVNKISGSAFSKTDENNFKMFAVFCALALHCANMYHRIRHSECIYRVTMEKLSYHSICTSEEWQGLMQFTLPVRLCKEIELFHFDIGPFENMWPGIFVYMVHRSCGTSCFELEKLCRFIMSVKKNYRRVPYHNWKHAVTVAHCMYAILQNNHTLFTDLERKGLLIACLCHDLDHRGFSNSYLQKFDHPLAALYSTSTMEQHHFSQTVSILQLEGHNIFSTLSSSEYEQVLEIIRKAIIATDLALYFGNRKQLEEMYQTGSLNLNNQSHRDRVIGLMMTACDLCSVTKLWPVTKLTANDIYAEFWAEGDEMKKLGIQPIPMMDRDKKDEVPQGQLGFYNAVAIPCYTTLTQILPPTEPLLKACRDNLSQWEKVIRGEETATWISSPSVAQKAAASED
Structure (SMILES),increase of pODD-Luc signal [1],luciferase signal response (MP2 CMV cells),"photon flux (MP2 pODD flank tumors; 4 mg intraperitoneally, 4 hours post injection)",PDE inhibition IC25 (PDE10A),effect on PD-1 blockade (MC38 colorectal tumor; 2 mg/kg iv 16 hours prior to suboptimal anti PD-1 (100 μg ip every 3 days)),"tumor growth, compound alone (MC38 colorectal tumor; repeated dosing, no antibody)",tumor growth delay (CMT167 flank lung tumors),"therapeutic effect, compound first and PD-1 antibody second (LLC tumor)",photon flux (MP2 pODD flank tumors; intraperitoneal delivery of 2 mg/kg),reduction in photon flux compared to vehicle [2],CMV luciferase activity vs vehicle [3],"photon flux reduction, dose comparison (HeLa pODD flank tumors)",fraction of tumors responding well (T2* increase) ([4]; 1 mg/kg IV),fraction of tumors responding well (T2* increase) ([4]; 2 mg/kg IV),tumor oxygenation ([4]; 1 or 2 mg/kg IV)
"COC(=O)CNC(=O)C(=O)OC [DMOG, dimethyloxalyglycine]",2.2 ×,unresponsive,significant increase of photon flux,–,–,–,–,–,–,–,–,–,–,–,–
"COc1ccc(Cc2nccc3cc(OC)c(OC)cc23)cc1OC [PPV, papaverine]",–,–,–,650 nM,enhance the effectiveness of suboptimal PD-1 blockade,no effect on tumor growth,significant tumor growth delay,no therapeutic benefit,did not reduce the photon flux,45%,no difference,greater photon flux reduction than the 2 mg/kg dose,1/4,3/5,increases oxygenation
